Test results published in article PMC5509550, “Development of a Novel Lead that Targets M. tuberculosis Polyketide Synthase 13” (Cell, 2017).
Converted amounts (≈) assume the structure as drawn. Read-outs that look alike come from different tables or passages of the source.

Assays:
M. tuberculosis H37Rv = system: M. tuberculosis H37Rv; parameters: species or system Mycobacterium tuberculosis; conditions: in vivo
M. tuberculosis Erdman [1] = system: M. tuberculosis Erdman; parameters: species or system Mycobacterium tuberculosis; conditions: in vivo
CYP2D6 = CYP2D6 (Homo sapiens, UniProt P10635); experiment: biochemical
CYP1A2 = target: T1, CYP1A2 (Homo sapiens, UniProt P05177); experiment: biochemical
T1 sequence (P05177 1-516): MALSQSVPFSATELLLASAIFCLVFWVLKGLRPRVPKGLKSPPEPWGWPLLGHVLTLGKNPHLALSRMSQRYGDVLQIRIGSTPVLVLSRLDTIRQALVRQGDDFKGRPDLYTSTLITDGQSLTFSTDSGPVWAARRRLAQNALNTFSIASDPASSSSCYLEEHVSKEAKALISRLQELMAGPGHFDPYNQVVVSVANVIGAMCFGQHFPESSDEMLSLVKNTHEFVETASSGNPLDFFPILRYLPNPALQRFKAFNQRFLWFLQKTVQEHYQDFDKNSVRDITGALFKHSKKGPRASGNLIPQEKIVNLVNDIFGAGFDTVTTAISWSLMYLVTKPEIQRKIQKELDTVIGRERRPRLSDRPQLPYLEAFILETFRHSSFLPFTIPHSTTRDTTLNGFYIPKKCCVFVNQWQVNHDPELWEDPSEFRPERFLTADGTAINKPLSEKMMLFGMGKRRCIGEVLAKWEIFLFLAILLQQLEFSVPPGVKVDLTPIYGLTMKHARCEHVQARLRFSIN

CYP2C9 = CYP2C9 (Homo sapiens, UniProt P11712); experiment: biochemical
Mtb mc^27000 [2] = experiment: microbe, parasite or virus in culture; format: cell-based, Mycobacterium tuberculosis; conditions: for MIC: Mycobacterium tuberculosis, read-out: MIC of the drug alone
M. tuberculosis Erdman [3] = system: M. tuberculosis Erdman; parameters: species or system Mycobacterium tuberculosis; conditions: in vivo; remark: listed apart in the source
[4] = Microsomal stability assay, mouse liver microsomes; conditions: metabolite identification
Mtb mc^27000 [5] = experiment: microbe, parasite or virus in culture; format: cell-based, Mycobacterium tuberculosis; conditions: for MIC: Mtb mc^27000, liquid medium, 96-well plates
Mtb Pks13-TE domain = target: T2, Mtb Pks13-TE domain (Mycobacterium tuberculosis, UniProt I6X8D2); experiment: biochemical; conditions: mean ± SD of three independent measurements
T2 construct: The 283 residue long TE domain starting from residue 1451 in full length Pks13; His6 (TEV-cleavable) (N, cleaved yes); made in house; host or cells: E. coli BL21(DE3)pLysS
T2 sequence (I6X8D2 1451-1733 limits assumed): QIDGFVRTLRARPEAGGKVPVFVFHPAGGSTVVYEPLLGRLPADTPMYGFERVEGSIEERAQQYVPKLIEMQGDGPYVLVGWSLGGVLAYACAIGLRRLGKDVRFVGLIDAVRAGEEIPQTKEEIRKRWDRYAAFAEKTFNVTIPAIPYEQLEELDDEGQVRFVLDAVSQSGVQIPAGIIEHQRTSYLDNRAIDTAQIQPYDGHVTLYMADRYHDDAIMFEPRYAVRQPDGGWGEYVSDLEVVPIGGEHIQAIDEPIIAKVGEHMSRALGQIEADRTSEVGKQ

[6] = single drug in the synergy study

CYP2D6, sequence (P10635 whole entry): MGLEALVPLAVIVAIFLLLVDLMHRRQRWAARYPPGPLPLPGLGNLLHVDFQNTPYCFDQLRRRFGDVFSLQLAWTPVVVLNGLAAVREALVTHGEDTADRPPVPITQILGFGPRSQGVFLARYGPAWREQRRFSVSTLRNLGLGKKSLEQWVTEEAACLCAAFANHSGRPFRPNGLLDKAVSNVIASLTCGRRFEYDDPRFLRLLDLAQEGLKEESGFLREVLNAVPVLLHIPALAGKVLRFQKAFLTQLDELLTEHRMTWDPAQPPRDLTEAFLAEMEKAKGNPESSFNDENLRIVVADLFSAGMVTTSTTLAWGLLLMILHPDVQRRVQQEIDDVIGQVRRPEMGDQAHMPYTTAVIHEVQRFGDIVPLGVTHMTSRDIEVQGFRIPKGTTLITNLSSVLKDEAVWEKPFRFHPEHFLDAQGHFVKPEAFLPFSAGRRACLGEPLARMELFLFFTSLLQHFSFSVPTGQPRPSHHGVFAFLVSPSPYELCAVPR
CYP2C9, sequence (P11712 whole entry): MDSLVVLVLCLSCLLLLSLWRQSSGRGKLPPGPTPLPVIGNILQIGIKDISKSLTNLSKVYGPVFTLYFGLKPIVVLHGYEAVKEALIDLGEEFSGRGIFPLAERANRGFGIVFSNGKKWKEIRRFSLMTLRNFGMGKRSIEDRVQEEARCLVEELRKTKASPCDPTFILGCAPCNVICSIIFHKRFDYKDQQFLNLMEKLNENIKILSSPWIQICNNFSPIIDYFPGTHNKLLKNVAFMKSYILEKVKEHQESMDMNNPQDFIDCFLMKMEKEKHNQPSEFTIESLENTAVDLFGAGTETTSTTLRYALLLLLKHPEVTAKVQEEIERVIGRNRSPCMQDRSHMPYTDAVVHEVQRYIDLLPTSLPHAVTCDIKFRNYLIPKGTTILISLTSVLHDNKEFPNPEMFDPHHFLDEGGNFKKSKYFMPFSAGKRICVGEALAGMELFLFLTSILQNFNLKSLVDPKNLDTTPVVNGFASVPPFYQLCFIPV

Row | Structure (SMILES) | MIC (Mtb mc^27000 [5]; Mycobacterium tuberculosis) | IC50 (Mtb Pks13-TE domain) | other results
1 | NNC(=O)c1ccncc1 [INH, Isoniazid] | – | – | lung CFU after 2 weeks of treatment (M. tuberculosis H37Rv): ~6.7 log10; reduction in lung CFU counts compared with untreated control (M. tuberculosis Erdman [1]): ~1.1 log10; reduction in spleen bacterial burden relative to untreated control (M. tuberculosis Erdman [1]): ~2.5 log10 CFU
2 | Clc1ccc(COC(Cn2ccnc2)c2ccc(Cl)cc2Cl)c(Cl)c1 (centres unmarked) [Miconazole] | – | – | IC50 (CYP2D6): 200 nM; IC50 (CYP1A2): 1100 nM; IC50 (CYP2C9): > 10000 nM
3 | CO[C@H]1/C=C/O[C@@]2(C)Oc3c(C)c(O)c4c(O)c(c(/C=N/N5CCN(C)CC5)c(O)c4c3C2=O)NC(=O)/C(C)=C\C=C\[C@H](C)[C@H](O)[C@@H](C)[C@@H](O)[C@@H](C)[C@H](OC(C)=O)[C@@H]1C [RIF, Rifampicin] | – | – | MIC of RIF in combination (Mtb mc^27000 [2]): 0.011 µM; improvement of MIC of RIF in combination (Mtb mc^27000 [2]): ~3 fold; MIC (Mtb mc^27000 [2]): 0.35 µM; CFU reduction in lungs compared to untreated control (M. tuberculosis Erdman [3]): ~2.4 log10 CFU
4 | [H]/N=C(/N)N[C@H]1[C@H](O)[C@@H](O)[C@H](O[C@@H]2O[C@@H](C)[C@](O)(C=O)[C@H]2O[C@@H]2O[C@@H](CO)[C@H](O)[C@@H](O)[C@@H]2NC)[C@@H](N/C(N)=N\[H])[C@@H]1O [SM, Streptomycin] | – | – | MIC of SM in combination (Mtb mc^27000 [2]): 0.037 µM; improvement of MIC of SM in combination (Mtb mc^27000 [2]): ~2 fold; MIC (Mtb mc^27000 [2]; [6]): 0.07 µM
5 | CCOC(=O)c1c(-c2ccccc2)oc2ccc(O)c(CN3CCC(C)CC3)c12 [TAM1, ethyl 5-hydroxy-4-[(4-methyl-1-piperidinyl)methyl]-2-phenyl-1-benzofuran-3-carboxylate] | 2.3 µM (≈ 0.905 µg/mL) | – | metabolism in mouse liver microsomes [4]: hydroxylated; stability in mouse serum (Stability in mouse serum): cleaved to the inactive acid
6 | CCOC(=O)c1c(-c2ccccc2)oc2ccc(O)c(CN3CCCC(C)C3)c12 (centres unmarked) [TAM2, ethyl 5-hydroxy-4-[(3-methyl-1-piperidinyl)methyl]-2-phenyl-1-benzofuran-3-carboxylate] | 4.4 µM (≈ 1.73 µg/mL) | 120 ± 20 nM | –
7 | CCOC(=O)c1c(-c2ccccc2)oc2ccc(O)c(CN3CCCC3)c12.Cl [TAM3, ethyl 5-hydroxy-2-phenyl-4-(1-pyrrolidinylmethyl)-1-benzofuran-3-carboxylate hydrochloride] | – | 240 ± 20 nM | MIC (Mtb mc^27000 [5]): 4.1 µM
8 | CCOC(=O)c1c(-c2ccccc2)oc2ccc(O)c(CN3CCCCCC3)c12.Cl [TAM4, ethyl 4-(1-azepanylmethyl)-5-hydroxy-2-phenyl-1-benzofuran-3-carboxylate hydrochloride] | – | 280 ± 30 nM | MIC (Mtb mc^27000 [5]): 4.6 µM
9 | CCOC(=O)c1c(-c2ccccc2)oc2ccc(O)c(CN3CCOCC3)c12 [TAM5, ethyl 5-hydroxy-4-(4-morpholinylmethyl)-2-phenyl-1-benzofuran-3-carboxylate] | 13.3 µM (≈ 5.07 µg/mL) | 710 ± 50 nM | –
10 | CCOC(=O)c1c(-c2ccccc2)oc2ccc(O)c(CN(C)C)c12 [TAM6, ethyl 4-[(dimethylamino)methyl]-5-hydroxy-2-phenyl-1-benzofuran-3-carboxylate] | 7.3 µM (≈ 2.48 µg/mL) | 1570 ± 150 nM | –
11 | CCOC(=O)c1c(-c2ccccc2)oc2ccc(O)cc12 [TAM7, Ethyl 5-hydroxy-2-phenylbenzofuran-3-carboxylate] | 20 µM (≈ 5.65 µg/mL) | 20000 ± 1900 nM | –
12 | CCOC(=O)c1c(-c2ccccc2)oc2ccc(O)c(Cc3ccccc3)c12 [TAM8, Ethyl 4-benzyl-5-hydroxy-2-phenylbenzofuran-3-carboxylate] | > 40 µM | 11900 ± 2300 nM | –
13 | CCOC(=O)c1c(-c2ccccc2)oc2ccc(O)c(CN3CCCCC3)c12 [TAM9, Ethyl 5-hydroxy-2-phenyl-4-(piperidin-1-ylmethyl)benzofuran-3-carboxylate] | 0.4 µM (≈ 0.152 µg/mL) | 260 ± 40 nM | Mouse Cli. (intrinsic clearance in mouse liver microsomes): 26.9 mL/min/g
14 | O=C(O)c1c(-c2ccccc2)oc2ccc(O)c(CN3CCCCC3)c12 [TAM10, 5-hydroxy-2-phenyl-4-(piperidin-1-ylmethyl)benzofuran-3-carboxylic acid] | – | 6600 ± 700 nM | –
15 | CCOC(=O)c1c(-c2ccccc2)oc2ccc(O)c(CC3CCCCC3)c12 [TAM11, Ethyl 4-(cyclohexylmethyl)-5-hydroxy-2-phenylbenzofuran-3-carboxylate] | 5.2 µM (≈ 1.97 µg/mL) | 19600 ± 1400 nM | –
16 | CNC(=O)c1c(-c2ccccc2)oc2ccc(O)c(CN3CCCCC3)c12 [TAM12, 5-hydroxy-N-methyl-2-phenyl-4-(piperidin-1-ylmethyl)benzofuran-3-carboxamide] | 0.2 µM (≈ 0.0729 µg/mL) | – | better whole-cell activity than ethyl ester analog TAM9 (Mtb mc^27000 [5]): 2 fold; Mouse Cli. (intrinsic clearance in mouse liver microsomes): 50 mL/min/g
17 | CCOC(=O)c1c(-c2ccc(O)cc2)oc2ccc(O)c(CN3CCCCC3)c12 [TAM13, Ethyl 5-hydroxy-2-(4-hydroxyphenyl)-4-(piperidin-1-ylmethyl)benzofuran-3-carboxylate] | – | 170 ± 20 nM | –
18 | CCOC(=O)c1c(-c2ccccc2)oc2ccc(OC)c(CN3CCCCC3)c12 [TAM14, Ethyl 5-methoxy-2-phenyl-4-(piperidin-1-ylmethyl)benzofuran-3-carboxylate] | – | 35800 ± 2200 nM | –
19 | CCOC(=O)c1c(-c2ccccc2)oc2cccc(CN3CCCCC3)c12 [TAM15, Ethyl 2-phenyl-4-(piperidin-1-ylmethyl)benzofuran-3-carboxylate] | 16 µM (≈ 5.82 µg/mL) | 2000 ± 100 nM | –
20 | CCOC(=O)c1c(-c2ccc(O)nc2)oc2ccc(O)c(CN3CCCCC3)c12 [TAM17, Ethyl 5-hydroxy-2-(6-hydroxypyridin-3-yl)-4-(piperidin-1-ylmethyl)benzofuran-3-carboxylate] | 4 µM (≈ 1.59 µg/mL) | 360 ± 40 nM | –
21 | CNC(=O)c1c(-c2ccc(O)c(F)c2)oc2ccc(O)c(CN3CCCCC3)c12 [TAM18, 2-(3-fluoro-4-hydroxyphenyl)-5-hydroxy-N-methyl-4-(piperidin-1-ylmethyl)benzofuran-3-carboxamide] | 0.5 µM (≈ 0.199 µg/mL) | 330 ± 30 nM | –
22 | CNC(=O)c1c(-c2ccc(O)cc2)oc2cc(O)cc(CN3CCCCC3)c12 [TAM19, 6-hydroxy-2-(4-hydroxyphenyl)-N-methyl-4-(piperidin-1-ylmethyl)benzofuran-3-carboxamide] | 1 µM (≈ 0.38 µg/mL) | 570 ± 30 nM | –
23 | CCOC(=O)c1c(-c2ccccc2)oc2cc(O)cc(CN3CCCCC3)c12 [TAM20, Ethyl 6-hydroxy-2-phenyl-4-(piperidin-1-ylmethyl)benzofuran-3-carboxylate] | 1.1 µM (≈ 0.417 µg/mL) | 450 ± 40 nM | –
24 | CCOC(=O)c1c(-c2ccccc2)oc2ccc(O)c(CN3CCCC(CO)C3)c12 (centres unmarked) [TAM21, Ethyl 5-hydroxy-4-((3-(hydroxymethyl)piperidin-1-yl)methyl)-2-phenylbenzofuran-3-carboxylate] | 10 µM (≈ 4.09 µg/mL) | 420 ± 40 nM | –
25 | CCOC(=O)c1c(-c2ccccc2)oc2ccc(O)c(CN3CCCCC3CO)c12 (centres unmarked) [TAM22, Ethyl 5-hydroxy-4-((2-(hydroxymethyl)piperidin-1-yl)methyl)-2-phenylbenzofuran-3-carboxylate] | > 10 µM | > 10000 nM | –
26 | CCOC(=O)c1c(-c2ccc(O)cc2)oc2ccc(O)c(CN3CCCC(CO)C3)c12 (centres unmarked) [TAM23, Ethyl 5-hydroxy-4-((3-(hydroxymethyl)piperidin-1-yl)methyl)-2-(4-hydroxyphenyl)benzofuran-3-carboxylate] | 2.5 µM (≈ 1.06 µg/mL) | 380 ± 10 nM | –
27 | CNC(=O)c1c(-c2ccccc2)oc2ccc(O)c(CN3CCCC(CO)C3)c12 (centres unmarked) [TAM24, 5-Hydroxy-4-((3-(hydroxymethyl)piperidin-1-yl)methyl)-N-methyl-2-phenylbenzofuran-3-carboxamide] | 0.5 µM (≈ 0.197 µg/mL) | 2100 ± 300 nM | –
28 | COc1nc2ccc(Br)cc2cc1[C@@H](c1ccccc1)[C@@](O)(CCN(C)C)c1cccc2ccccc12 [TMC207, Bedaquiline] | – | – | MIC of TMC207 in combination (Mtb mc^27000 [2]): 0.005 µM; improvement of MIC of TMC207 in combination (Mtb mc^27000 [2]): 2.6 fold; MIC (Mtb mc^27000 [2]; [6]): 0.013 µM
